{
  "source": "paper PMC9773825",
  "test": "not told",
  "data": [
    {"smiles": "CON(C)Cc1ccc(O)c2c1CC1CC3C(N(C)C)C(O)=C(C(N)=O)C(=O)C3(O)C(O)=C1C2=O", "note": "(stereo not drawn)", "values": [
      {"measurement": "log partition chloroform / water/buffer", "setting": "pH 3.5, 25", "value": 1.14, "unit": "log10"},
      {"measurement": "log partition octanol / water/buffer", "setting": "pH 3.5, 25", "value": "−0.30", "unit": "log10"},
      {"measurement": "log partition chloroform / water/buffer", "setting": "pH 5.5, 25", "value": 1.48, "unit": "log10"},
      {"measurement": "log partition octanol / water/buffer", "setting": "pH 5.5, 25", "value": "−0.16", "unit": "log10"},
      {"measurement": "log partition chloroform / water/buffer", "setting": "pH 7.4, 25", "value": 1.46, "unit": "log10"},
      {"measurement": "log partition octanol / water/buffer", "setting": "pH 7.4, 25", "value": "−0.26", "unit": "log10"}
    ]}
  ]
}
